Source: patent publication US9877981B2, “NAD biosynthesis and precursors for the treatment and prevention of cancer and proliferation” (President and Fellows of Harvard College, priority 2012, dated 2018)

Tests used:
Format in all cases: cell-based, mouse
PGC-1α/β KO myotubes = experiment: qPCR of ETC genes in PGC-1α/β KO myotubes; conditions: for expression of nuclear- and mitochondrial-encoded genes: EX-527 48 h
Experimental: (§1) Primary myoblasts cells were isolated from WT, SIRT1 KO (Price et al., 2012) and PGC-1α/β KO (Zechner et al., 2010) mice as previously described (Price et al., 2012). WT and PGC-1α/β KO primary myoblasts were plated and allowed to differentiate into myotubes by replacing the media with low glucose DMEM supplemented with 2% horse serum (Sigma-Aldrich) for 4 days. After the differentiation the cells were infected with empty vector or flag-SIRT1 adenovirus as described before (Gerhart-Hines et al., 2007). Media was replaced with fresh DMEM supplemented with 2% horse serum (Sigma-Aldrich) for an additional 48 hr and, after that the cells were harvested for the different assays as described. To investigate the role of HIF-1α in genome asynchrony, PGC-1α/β KO primary myotubes were treated for 12 hours with 1 mM DMOG (Sigma) or 10 μM DFO (Sigma), 24 h after infection with empty vector of flag-SIRT1 adenovirus or after 12 h treatment with 500 mM NMN (Sigma).
(§2) RNA from skeletal muscle tissue and C2C12 cells were extracted with RNeasy mini kit (Qiagen) according to the instructions and quantified using the NanoDrop 1000 spectrophotometer (Thermo Scientific). cDNA was synthesized with the iSCRIP cDNA synthesis kit (BioRad) using 600 ng of RNA. Quantitative RT-PCR reactions were performed using 1 μM of primers and LightCycler® 480 SYBR Green Master (Roche) on an LightCycler® 480 detection system (Roche). Calculations were performed by a comparative method (2-ΔCT) using 18S as an internal control. For mtDNA analysis, total DNA was extracted with DNeasy blood and tissue kit (Qiagen). mtDNA was amplified using primers specific for the mitochondrial cytochrome c oxidase subunit 2 (COX2) gene and normalized to genomic DNA by amplification of the ribosomal protein s18 (rps18) nuclear gene. Primers were designed using the IDT software (IDT) and the primer sequences can be found in Table 1.

HIF-1α = experiment: Immunoblot of HIF-1α in primary WT myoblasts; conditions: 10 mM lactate 24 h
Experimental: as §1, with “To investigate the role of HIF-1α in genome asynchrony, PGC-1α/β KO primary myotubes were treated for 12 hours with 1 mM DMOG (Sigma) or 10 μM DFO (Sigma), 24 h after infection with empty vector of flag-SIRT1 adenovirus or after 12 h treatment with 500 mM NMN (Sigma).” left out
Protein extracts from tissue or C2C12 cells were obtained by lysis in ice-cold lysis buffer (150 mM NaCl, 10 mM Tris HCl (pH 7.4), 1 mM EDTA, 1 mM EGTA, 1% Triton X-100, 0.5% NP-40) supplemented with a cocktail of protease and phosphatase inhibitors (Roche). Protein content was determined by the Bradford protein assay (Biorad), and 50 μg proteins were run on SDS-PAGE under reducing conditions. […] The immunostaining was detected using horseradish peroxidase-conjugated anti-rabbit or anti-mouse immunoglobulin for 1 h at room temperature.

NAD+/NADH = NAD+/NADH ratio in primary myoblasts treated with pyruvate or lactate; conditions: primary WT myoblasts; 10 mM lactate 24 h
Experimental: as §1

C2C12 myoblasts = experiment: mtDNA content and ETC gene expression in C2C12 myoblasts; conditions: C2C12 cells; 10 μM EX-527 for 12 h
Experimental: C2C12 cell line (ATCC) was cultured in low glucose Dulbecco's modified eagle medium (DMEM) (Invitrogen) supplemented with 10% FBS (Invitrogen) and a mix of antibiotic and antimycotic (Invitrogen). To inhibit SIRT1, cells were treated the vehicle (0.001% DMSO) or 10 μM EX-527 (Tocris) for 12 h. C2C12 myoblasts were infected with an empty or SIRT1 adenovirus as described before (Gerhart-Hines et al., 2007) and the media was replaced with fresh DMEM for additional 48 h, after that the cells were treated as described before. To test the effects of hypoxia and HIFα stabilization in genome asyncrony, C2C12 myoblasts were exposed to 1% oxygen for 16 h or treated with the vehicle (0.001% DMSO) or DMOG (Cayman) for the same period of time.
as §2

CC(=O)N(O)CCCCCNC(=O)CCC(=O)N(O)CCCCCNC(=O)CCC(=O)N(O)CCCCCN [DFO, desferrioxamine]
effect on NMN-induced expression of mitochondrially-encoded ETC genes (PGC-1α/β KO myotubes; PGC-1α/β KO myotubes, NMN plus 1 mM DMOG or 10 μM DFO, 12 hours): completely abolished | effect on induction of mitochondrial ETC genes by SIRT1 overexpression (PGC-1α/β KO myotubes; PGC-1α/β knockout myotubes with SIRT1 adenovirus, 1 mM DMOG or 10 μM DFO): completely blocked

CC(O)C(=O)O (stereo not shown) [lactate]
HIF-1α protein stabilization (HIF-1α): induces HIF-1α protein stabilization | NAD+/NADH ratio (NAD+/NADH): decreasing NAD^+/NADH ratio

NC(=O)C1CCCc2c1[nH]c1ccc(Cl)cc21 (stereo not shown) [EX-527]
genome asynchrony (C2C12 myoblasts): Genome asynchrony was induced | expression of nuclear- and mitochondrial-encoded genes (PGC-1α/β KO myotubes; PGC-1α/β KO myotubes reconstituted with PGC-1α T177A/S538A mutant): only the mitochondrial-encoded genes decreased | expression of nuclear- and mitochondrial-encoded genes (PGC-1α/β KO myotubes; PGC-1α/β KO myotubes reconstituted with WT PGC-1α): decreased both nuclear- and mitochondrial-encoded genes
